# Article PMC3865603 (Cancer chemotherapy and pharmacology, 2011)
# Tests used:
# [1] = Plasma pharmacokinetics, non-compartmental; type: in vivo, human
# [2] = tested on: P-gp-overexpressing cell lines; details: cited from earlier work
# [3] = KOS-1584 0.8 mg/m^2, 3 h infusion, cycle 1, N=1
# [4] = KOS-1584 1.5 mg/m^2, 3 h infusion, cycle 1, N=4
# [5] = KOS-1584 2.5 mg/m^2, 3 h infusion, cycle 1, N=4
# [6] = KOS-1584 3.7 mg/m^2, 3 h infusion, cycle 1, N=3
# [7] = KOS-1584 5.0 mg/m^2, 3 h infusion, cycle 1, N=4
# [8] = KOS-1584 6.5 mg/m^2, 3 h infusion, cycle 1, N=6
# [9] = KOS-1584 8.5 mg/m^2, 3 h infusion, cycle 1, N=3
# [10] = KOS-1584 11.3 mg/m^2, 3 h infusion, cycle 1, N=4
# [11] = KOS-1584 15.0 mg/m^2, 3 h infusion, cycle 1, N=4
# [12] = KOS-1584 20.0 mg/m^2, 3 h infusion, cycle 1, N=5
# [13] = KOS-1584 27 mg/m^2, 3 h infusion, cycle 1, N=4
# [14] = KOS-1584 36 mg/m^2, 3 h infusion, cycle 1, N=16
# [15] = KOS-1584 42 mg/m^2, 3 h infusion, cycle 1, N=6
# [16] = KOS-1584 48 mg/m^2, 3 h infusion, cycle 1, N=2
# [17] = all cohorts 0.8-48 mg/m^2, cycle 1
smiles,measurement,setting,value
"C/C1=C/C[C@@H](/C(C)=C/c2csc(C)n2)OC(=O)C[C@H](O)C(C)(C)C(=O)[C@H](C)[C@@H](O)[C@@H](C)/C=C/C1 [KOS-1584, (E)-9,10-didehydroepothilone D]",linearity of pharmacokinetics,[1]; 0.8-48 mg/m^2,linear pharmacokinetics
same,KOS-1584 AUC,[1]; [3],26.7 ng·h/mL
same,KOS-1584 CL,[1]; [3],30.0 L/h/m^2
same,KOS-1584 Cmax,[1]; [3],5.73 ng/mL
same,KOS-1584 Tmax,[1]; [3],3.0 ng/mL
same,KOS-1584 Vλ,[1]; [3],541 L/m^2
same,KOS-1584 t1/2,[1]; [3],12.5 h
same,KOS-1584 AUC,[1]; [4],64.9 ± 16.3 ng·h/mL
same,KOS-1584 CL,[1]; [4],24.6 ± 7.63 L/h/m^2
same,KOS-1584 Cmax,[1]; [4],9.29 ± 4.16 ng/mL
same,KOS-1584 Tmax,[1]; [4],2.0 ± 1.2 ng/mL
same,KOS-1584 Vλ,[1]; [4],553 ± 146 L/m^2
same,KOS-1584 t1/2,[1]; [4],16.0 ± 3.96 h
same,KOS-1584 AUC,[1]; [5],170 ± 2.21 ng·h/mL
same,KOS-1584 CL,[1]; [5],14.9 ± 1.95 L/h/m^2
same,KOS-1584 Cmax,[1]; [5],18.0 ± 5.24 ng/mL
same,KOS-1584 Tmax,[1]; [5],3.0 ± 0.02 ng/mL
same,KOS-1584 Vλ,[1]; [5],385 ± 109 L/m^2
same,KOS-1584 t1/2,[1]; [5],18.2 ± 6.37 h
same,KOS-1584 AUC,[1]; [6],359 ± 40.7 ng·h/mL
same,KOS-1584 CL,[1]; [6],10.4 ± 1.27 L/h/m^2
same,KOS-1584 Cmax,[1]; [6],32.9 ± 10.8 ng/mL
same,KOS-1584 Tmax,[1]; [6],3.0 ± 0.06 ng/mL
same,KOS-1584 Vλ,[1]; [6],279 ± 60.1 L/m^2
same,KOS-1584 t1/2,[1]; [6],18.7 ± 3.64 h
same,KOS-1584 AUC,[1]; [7],468 ± 140 ng·h/mL
same,KOS-1584 CL,[1]; [7],11.3 ± 2.84 L/h/m^2
same,KOS-1584 Cmax,[1]; [7],41.9 ± 13.4 ng/mL
same,KOS-1584 Tmax,[1]; [7],2.61 ± 0.74 ng/mL
same,KOS-1584 Vλ,[1]; [7],269 ± 104 L/m^2
same,KOS-1584 t1/2,[1]; [7],16.0 ± 2.53 h
same,KOS-1584 AUC,[1]; [8],566 ± 159 ng·h/mL
same,KOS-1584 CL,[1]; [8],12.4 ± 2.91 L/h/m^2
same,KOS-1584 Cmax,[1]; [8],41.9 ± 11.3 ng/mL
same,KOS-1584 Tmax,[1]; [8],2.49 ± 0.76 ng/mL
same,KOS-1584 Vλ,[1]; [8],348 ± 79.9 L/m^2
same,KOS-1584 t1/2,[1]; [8],19.9 ± 4.68 h
same,KOS-1584 AUC,[1]; [9],620 ± 317 ng·h/mL
same,KOS-1584 CL,[1]; [9],15.9 ± 6.34 L/h/m^2
same,KOS-1584 Cmax,[1]; [9],78.4 ± 28.8 ng/mL
same,KOS-1584 Tmax,[1]; [9],2.96 ± 0.03 ng/mL
same,KOS-1584 Vλ,[1]; [9],327 ± 190 L/m^2
same,KOS-1584 t1/2,[1]; [9],13.7 ± 4.57 h
same,KOS-1584 AUC,[1]; [10],"2,206 ± 994 ng h/mL"
same,KOS-1584 CL,[1]; [10],6.28 ± 3.56 L/h/m^2
same,KOS-1584 Cmax,[1]; [10],140 ± 41.9 ng/mL
same,KOS-1584 Tmax,[1]; [10],2.60 ± 0.68 ng/mL
same,KOS-1584 Vλ,[1]; [10],267 ± 197 L/m^2
same,KOS-1584 t1/2,[1]; [10],28.5 ± 6.77 h
same,KOS-1584 AUC,[1]; [11],"2,204 ± 946 ng h/mL"
same,KOS-1584 CL,[1]; [11],7.69 ± 2.89 L/h/m^2
same,KOS-1584 Cmax,[1]; [11],220 ± 84.7 ng/mL
same,KOS-1584 Tmax,[1]; [11],2.97 ± 0.03 ng/mL
same,KOS-1584 Vλ,[1]; [11],263 ± 113 L/m^2
same,KOS-1584 t1/2,[1]; [11],23.5 ± 1.77 h
same,KOS-1584 AUC,[1]; [12],"2,440 ± 945 ng h/mL"
same,KOS-1584 CL,[1]; [12],9.28 ± 3.56 L/h/m^2
same,KOS-1584 Cmax,[1]; [12],284 ± 153 ng/mL
same,KOS-1584 Tmax,[1]; [12],2.38 ± 0.80 ng/mL
same,KOS-1584 Vλ,[1]; [12],288 ± 165 L/m^2
same,KOS-1584 t1/2,[1]; [12],20.2 ± 8.15 h
same,KOS-1584 AUC,[1]; [13],"3,190 ± 1,490 ng h/mL"
same,KOS-1584 CL,[1]; [13],10.1 ± 5.00 L/h/m^2
same,KOS-1584 Cmax,[1]; [13],259 ± 110 ng/mL
same,KOS-1584 Tmax,[1]; [13],3.10 ± 0.27 ng/mL
same,KOS-1584 Vλ,[1]; [13],434 ± 339 L/m^2
same,KOS-1584 t1/2,[1]; [13],27.8 ± 9.08 h
same,KOS-1584 AUC,[1]; [14],"5,267 ± 3,190 ng h/mL"
same,KOS-1584 CL,[1]; [14],8.98 ± 4.59 L/h/m^2
same,KOS-1584 Cmax,[1]; [14],701 ± 425 ng/mL
same,KOS-1584 Tmax,[1]; [14],2.67 ± 0.58 ng/mL
same,KOS-1584 Vλ,[1]; [14],329 ± 134 L/m^2
same,KOS-1584 t1/2,[1]; [14],27.9 ± 10.6 h
same,KOS-1584 AUC,[1]; [15],"7,355 ± 4,718 ng h/mL"
same,KOS-1584 CL,[1]; [15],8.52 ± 5.43 L/h/m^2
same,KOS-1584 Cmax,[1]; [15],"1,066 ± 513 ng/mL"
same,KOS-1584 Tmax,[1]; [15],2.95 ± 0.04 ng/mL
same,KOS-1584 Vλ,[1]; [15],277 ± 165 L/m^2
same,KOS-1584 t1/2,[1]; [15],24.1 ± 9.37 h
same,KOS-1584 AUC,[1]; [16],"4,727 ± 167 ng h/mL"
same,KOS-1584 CL,[1]; [16],10.1 ± 0.27 L/h/m^2
same,KOS-1584 Cmax,[1]; [16],769 ± 42.4 ng/mL
same,KOS-1584 Tmax,[1]; [16],2.92 ± 0.0 ng/mL
same,KOS-1584 Vλ,[1]; [16],349 ± 205 L/m^2
same,KOS-1584 t1/2,[1]; [16],24.1 ± 14.7 h
same,mean overall clearance,[1]; [17],11 ± 6.17 L/h/m^2
same,mean overall half-life of KOS-1584,[1]; [17],21.9 ± 8.75 h
same,mean overall volume of distribution,[1]; [17],327 ± 161 L/m^2
same,accumulation,"[1]; every 3 weeks dosing, cycles 1 and 2",no accumulation
same,potency relative to paclitaxel,[2],more potent than paclitaxel
